In patent publication US7605153B2, “Use of paullone derivatives for the production of medicaments for the treatment of mucoviscidosis and diseases related to protein addressing errors in cells” (Centre National de la Recherche Scientifique - CNRS, priority 2005, dated 2009):
One block for each molecule: values may come before it.

How the values were obtained:
delF508-CFTR [1] = target: T1, delF508-CFTR (Homo sapiens, UniProt P13569, DEL508-508); assay: iodide efflux, delF508 addressing in CF15 cells; type: cell-based; settings: for effect of known CFTR inhibitors on delF508 activity after treatment with kenpaullone: CF15 cells treated with kenpaullone, iodide transport; for delF508-CFTR activity (iodide efflux) normalised to MPB-91 standard treatment: CF15 cells treated 2 hrs at 37° C., stimulation 10 μM Forskoline+30 μM Genisteine, 250 μM MPB-91 for 2 hrs = 100%, alsterpaullone 100 μM
T1 construct: CF15 human lung epithelial cells homozygous for the delF508 deletion; endogenous in cells; host or cells: CF15 human nasal/lung epithelial cells, homozygous delF508
Protocol: CF15 cells: CF15 cells are human nasal epithelial cells expressing the AF508-CFTR gene.
The cells are incubated in an appropriate medium in 24-well plates. […] The iodide equilibrates on either side of the cell membrane. The following steps are performed using a robot (MultiPROBE, Packard): the loading medium is rinsed with efflux medium in order to eliminate extracellular radioactivity. The supernatant is collected every minute into haemolysis tubes and the medium is replaced by an equivalent volume of medium (500 μl). No drug is added to the samples taken in the first three minutes in order to obtain a stable baseline characterising the passive exit of I ions. The 7 samples that follow are obtained in the presence of the molecule to be tested. At the end of the experiment, the cells are lysed by adding 500 μl of 0.1 N NaOH/0.1% SDS (30 min), which allows determining the level of radioactivity remaining inside the cell. The radioactivity present in the haemolysis tubes is measured as counts per minute (cpm) using a gamma counter (Cobra II, Packard). […] This iodide flux is represented by a graph. In order to quantify the iodide efflux due to administration of the tested molecule, the relative flux is calculated as follows in order to ignore the basal flux: Relative velocity (min^−1)=Rpeak−Rbasal. […] The results are presented in the form of a mean+/−SEM. Student's statistical test is used to compare the effect of the various drugs with the controls (the corresponding P<0.01 values are considered to be statistically significant).
The study of delF508-CFTR protein addressing is performed in the laboratory by using a combination of pharmacological, cellular imagery, biochemical and electrophysiological tests on CF15 human lung epithelial cells homozygous for the delF508 deletion. For each experiment, the addition of a cocktail (10 μM Forskoline+30 μM Genisteine) allows activation of the CFTR when the latter is localised at the membrane. This allows an iodide efflux to be observed if delF508 addressing has been restored.

CHO-WT cells = assay: MTT cytotoxicity test; type: cell-based, Chinese Hamster; settings: CHO-WT cells incubated 2 hrs, different concentrations
Protocol: CHO-WT cells: CHO (Chinese Hamster Ovary) cells are fibroblasts transfected with the wild-type CFTR gene (CFTR-WT). These cells will therefore overexpress the CFTR protein.
The MTT cytotoxicity test is a […] test based on the capacity of mitochondrial dehydrogenases to metabolise MTT (a yellow tetrazolium salt) into formazan (purple). The absorbance is proportional to the concentration of converted dye and can then be measured by spectrophotometry. The cells are incubated in 96-well microplates in the presence of the agent to be tested for 2 hours. Three controls are performed: 100% live cells: cells without any agent; 0% live cells: cells left under normal atmosphere; blank: medium without cells. The cells are rinsed with RPMI medium without phenol red in order for the colour of the medium not to interfere with absorbance measurements. They are then incubated for 4 hours with 100 μl RPMI solution supplemented with MTT (0.5 mg/ml). The medium is eliminated, 100 μl DMSO is added which permit to dissolve the converted dye (formazan). The absorbance is measured by spectrophotometry at 570 nm (purple); 630 nm (background noise). In order to ignore the background noise, the following calculation is performed: DOreelle=DO570nm−DO630nm. The results are then normalised with respect to the controls (100% and 0% live cells) and presented in the form of a mean+/−SEM. […]

GSK-3 = settings: cited from earlier work
[2] = in vivo; cited from earlier work
wild-type CFTR [3] = target: T2, wild-type CFTR (Homo sapiens, UniProt P13569); assay: iodide efflux, CFTR activity in Calu-3 cells (test as activator); type: cell-based; settings: n=8, controls forskoline 5 μM, MPB-91 250 μM
T2 construct: Calu-3 cells are human lung epithelial cells expressing the wild-type CFTR gene; endogenous in cells; host or cells: Calu-3 human lung epithelial cells
Protocol: (§1) Calu-3 cells: Calu-3 cells are human lung epithelial cells expressing the wild-type CFTR gene.
(§2) Measurements of chloride ion transport in the cells were performed using the radioactive iodide efflux technique (Becq et al., Journal of Biological Chemistry 274, 27415-27425 (1999); Dormer et al., Journal of Cell Science 114, 4073-4081 (2001). The ^125I tracer is incorporated into the intracellular milieu. Then, the quantity of radiotracer coming out of the cell is then measured after adding various pharmacological agents. Iodide is used as a tracer of chloride ion transport. ^125I has the advantage of being short-lived compared to other markers such as ^35Cl (respective half-lives: […] and 300,000 years).
(§3) The cells are incubated in an appropriate medium in 24-well plates. The cells are rinsed twice with efflux medium (136.6 mM NaCl, 5.4 mM KCl, 0.3 mM KH2PO4, 0.3 mM NaH2PO4, 4.2 mM NaHCO3, 1.3 mM CaCl2, 0.5 mM MgCl2, 0.4 mM MgSO4, 10 mM HEPES, 5.6 mM D-glucose) in order to eliminate dead cells, which release radioactivity in an anarchic fashion. […] The following steps are performed using a robot (MultiPROBE, Packard): the loading medium is rinsed with efflux medium in order to eliminate extracellular radioactivity. […] The radioactivity present in the haemolysis tubes is measured as counts per minute (cpm) using a gamma counter (Cobra II, Packard). […]

delF508-CFTR [4] = target: T1, delF508-CFTR; assay: immunolabelling, cellular localisation of delF508-CFTR in CF15 cells; type: cell-based; settings: 100 μM
Protocol: Immunolabelling allows visualising the cellular localisation of the CFTR protein by an anti-CFTR primary antibody (Ab), and a secondary Cy3-labelled fluorescent antibody directed against the primary antibody.
The cells are first seeded on cover slips in an appropriate culture medium. The cells are then washed 3 times with TBS (157 mM NaCl, […] Tris base, pH 7.4) of 5 min. each time and then fixed by adding 3% TBS-paraformaldehyde for 20 min. After 3 washes with TBS (5 min), the cells are incubated with 0.1% TBS-triton (10 min) to make holes in the cell membrane, and then washed 3 times with TBS before being exposed to 0.5% TBS-BSA-0.05% saponin for 1 hr. The cells are then incubated with the primary anti-CFTR C terminal antibody (2 μg/ml) for 1 hr. The cells are washed 3 times (5 min. each) with TBS-BSA-saponin before incubating with the GAM-cy3 secondary antibody ( 1/400) for 1 hr. After 2 TBS washes (5 min. each), the nuclei are labelled by incubating with Topro3 ( 1/1,000) for 5 min. Finally, the cover slips can be mounted on a glass slide after 3 final TBS washes of 5 min. each. The slides are observed with a confocal microscope (Bio-Rad) using laser excitation at appropriate wave-lengths. In order to differentiate Cy3 from Topro3 labelling, the colour of the Topor3 fluorescence has been changed to blue (colour of the nuclei). […]

wild-type CFTR [5] = target: T2, wild-type CFTR; assay: iodide efflux, CFTR addressing in Calu-3 cells after 2 hrs treatment; type: cell-based; settings: Calu-3 cells treated for 2 hrs, 100 μM
Protocol: as §1, §2, §3

T1 sequence (P13569 with tags, fused parts or gaps DEL508-508): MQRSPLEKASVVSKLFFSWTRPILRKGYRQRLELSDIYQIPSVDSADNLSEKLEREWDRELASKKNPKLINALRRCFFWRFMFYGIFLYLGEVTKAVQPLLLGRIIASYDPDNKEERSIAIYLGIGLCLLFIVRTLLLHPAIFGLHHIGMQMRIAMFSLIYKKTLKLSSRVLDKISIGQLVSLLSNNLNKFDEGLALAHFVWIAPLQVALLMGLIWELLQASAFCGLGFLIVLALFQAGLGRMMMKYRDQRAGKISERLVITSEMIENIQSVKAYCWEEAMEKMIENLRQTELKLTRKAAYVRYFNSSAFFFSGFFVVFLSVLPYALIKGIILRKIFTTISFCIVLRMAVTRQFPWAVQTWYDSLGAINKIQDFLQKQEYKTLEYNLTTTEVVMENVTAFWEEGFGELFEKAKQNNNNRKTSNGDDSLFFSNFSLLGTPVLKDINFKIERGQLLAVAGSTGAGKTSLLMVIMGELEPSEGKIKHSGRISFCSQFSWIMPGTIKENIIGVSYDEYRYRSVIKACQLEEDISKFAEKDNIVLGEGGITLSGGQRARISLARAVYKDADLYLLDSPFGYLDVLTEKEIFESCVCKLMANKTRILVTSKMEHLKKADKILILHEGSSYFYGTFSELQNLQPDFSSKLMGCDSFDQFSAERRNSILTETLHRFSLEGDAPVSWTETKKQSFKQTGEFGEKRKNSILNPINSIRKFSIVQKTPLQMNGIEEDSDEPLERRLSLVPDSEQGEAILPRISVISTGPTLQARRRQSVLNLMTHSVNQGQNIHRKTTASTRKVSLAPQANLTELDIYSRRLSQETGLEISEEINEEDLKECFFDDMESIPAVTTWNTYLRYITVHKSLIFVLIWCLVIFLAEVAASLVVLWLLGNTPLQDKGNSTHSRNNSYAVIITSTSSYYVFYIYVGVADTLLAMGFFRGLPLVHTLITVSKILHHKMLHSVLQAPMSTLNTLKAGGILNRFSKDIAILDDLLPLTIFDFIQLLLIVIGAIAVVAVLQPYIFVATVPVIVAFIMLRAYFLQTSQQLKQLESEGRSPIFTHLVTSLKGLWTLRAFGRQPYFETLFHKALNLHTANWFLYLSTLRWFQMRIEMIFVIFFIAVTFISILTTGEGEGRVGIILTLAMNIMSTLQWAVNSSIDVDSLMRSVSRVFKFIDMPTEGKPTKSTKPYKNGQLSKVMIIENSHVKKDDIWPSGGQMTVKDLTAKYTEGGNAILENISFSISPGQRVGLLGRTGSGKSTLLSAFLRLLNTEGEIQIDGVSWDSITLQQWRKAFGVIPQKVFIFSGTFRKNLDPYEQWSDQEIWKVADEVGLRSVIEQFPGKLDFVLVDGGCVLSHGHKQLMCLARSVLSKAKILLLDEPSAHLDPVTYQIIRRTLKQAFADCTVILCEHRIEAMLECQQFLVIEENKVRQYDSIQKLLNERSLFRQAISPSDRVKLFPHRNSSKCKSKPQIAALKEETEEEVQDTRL
T2 sequence (P13569 whole entry): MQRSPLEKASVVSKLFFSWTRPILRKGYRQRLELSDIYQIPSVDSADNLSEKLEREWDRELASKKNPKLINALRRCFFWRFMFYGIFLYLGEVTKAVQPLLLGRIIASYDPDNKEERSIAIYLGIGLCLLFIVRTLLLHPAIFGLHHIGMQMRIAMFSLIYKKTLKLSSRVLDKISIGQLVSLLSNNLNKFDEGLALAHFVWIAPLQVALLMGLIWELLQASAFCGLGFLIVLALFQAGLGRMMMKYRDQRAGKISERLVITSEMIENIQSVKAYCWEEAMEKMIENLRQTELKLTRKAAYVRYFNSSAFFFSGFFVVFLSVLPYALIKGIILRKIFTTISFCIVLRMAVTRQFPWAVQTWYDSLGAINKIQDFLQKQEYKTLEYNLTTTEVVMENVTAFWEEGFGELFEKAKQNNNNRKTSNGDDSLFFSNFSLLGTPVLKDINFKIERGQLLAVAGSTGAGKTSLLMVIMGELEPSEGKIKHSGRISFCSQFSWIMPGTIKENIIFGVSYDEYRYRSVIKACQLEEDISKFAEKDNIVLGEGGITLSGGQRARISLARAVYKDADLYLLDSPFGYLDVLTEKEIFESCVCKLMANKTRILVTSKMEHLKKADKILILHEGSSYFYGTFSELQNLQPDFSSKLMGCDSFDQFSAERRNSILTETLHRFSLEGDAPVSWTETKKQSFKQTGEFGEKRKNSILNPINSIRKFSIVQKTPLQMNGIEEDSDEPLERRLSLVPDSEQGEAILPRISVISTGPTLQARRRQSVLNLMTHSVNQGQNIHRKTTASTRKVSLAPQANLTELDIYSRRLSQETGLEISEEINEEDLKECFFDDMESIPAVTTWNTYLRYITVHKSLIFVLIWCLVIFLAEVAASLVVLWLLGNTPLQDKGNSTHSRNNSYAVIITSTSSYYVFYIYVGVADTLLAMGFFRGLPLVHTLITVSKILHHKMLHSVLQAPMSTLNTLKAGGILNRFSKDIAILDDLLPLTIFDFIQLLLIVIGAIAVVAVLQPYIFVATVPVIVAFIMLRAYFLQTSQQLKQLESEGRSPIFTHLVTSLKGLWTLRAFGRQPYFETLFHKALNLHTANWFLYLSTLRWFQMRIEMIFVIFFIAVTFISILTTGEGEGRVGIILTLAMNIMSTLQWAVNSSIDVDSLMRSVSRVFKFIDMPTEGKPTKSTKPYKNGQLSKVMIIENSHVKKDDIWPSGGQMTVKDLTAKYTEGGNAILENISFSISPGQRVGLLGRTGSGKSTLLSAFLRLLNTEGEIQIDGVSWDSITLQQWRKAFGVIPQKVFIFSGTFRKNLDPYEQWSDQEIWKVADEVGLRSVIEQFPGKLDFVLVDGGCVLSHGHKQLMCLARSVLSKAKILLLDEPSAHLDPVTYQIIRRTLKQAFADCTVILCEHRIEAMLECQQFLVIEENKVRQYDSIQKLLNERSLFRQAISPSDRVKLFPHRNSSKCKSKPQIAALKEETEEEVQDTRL

SMILES: O=S(=O)(O)c1cc(N=C=S)ccc1C=Cc1ccc(N=C=S)cc1S(=O)(=O)O [DIDS]
effect of known CFTR inhibitors on delF508 activity after treatment with kenpaullone (delF508-CFTR [1]): insensitive

SMILES: COc1ccc(Cl)cc1C(=O)NCCc1ccc(S(=O)(=O)NC(=O)NC2CCCCC2)cc1 [glibenclamide]
effect of known CFTR inhibitors on delF508 activity after treatment with kenpaullone (delF508-CFTR [1]): blocked

SMILES: O=C1Cc2c([nH]c3ccc(Br)cc23)-c2ccccc2N1 [kenpaullone]
cell viability (MTT) (CHO-WT cells): viable at all concentrations
selectivity for GSK-3 inhibition (GSK-3): highly selective
toxicity in animals [2]: only very slight toxicity
activation of wild-type CFTR or other anionic transporter (wild-type CFTR [3]): not found to be an activator
localisation of delF508 protein (delF508-CFTR [4]): redirect the delF508 protein towards the membrane
EC50 (delF508-CFTR [1]): 22 ± 1.7 µM
delF508-CFTR activity (iodide efflux) normalised to MPB-91 standard treatment (delF508-CFTR [1]): higher than that obtained with MPB-91
CFTR activity after treatment (wild-type CFTR addressing) (wild-type CFTR [5]): not significantly different from the controls

Continued, values first:

effect of known CFTR inhibitors on delF508 activity after treatment with kenpaullone (delF508-CFTR [1]): blocked
SMILES: O=C(O)c1ccccc1Nc1ccccc1 [DPC]

delF508-CFTR activity (iodide efflux) normalised to MPB-91 standard treatment (delF508-CFTR [1]): no effect
SMILES: O=C1Cc2c([nH]c3ccc([N+](=O)[O-])cc23)-c2ccccc2N1 [alsterpaullone]
